Seven compounds from patent US5593970A, “Heterocyclic anthracycline analogs” (priority 1994, dated 1997) can be followed below.

Test [1] has as its system HT29. As to the kind of experiment: Soft agar colony formation disk diffusion assay. The format is cell-based, human. An excerpt: A more elaborate version of this fundamental assay, the soft agar colony formation disk diffusion assay was used. […] The effect of the test drug against tumoral cells could be measured by its inhibitory capacity against colony formation after the delivery of the compound, in different concentrations on an filter disk(4). A modified technique of this assay was used in order to investigate the antiproliferative activity of candidate compounds. Tumoral cells from solid tumors and ascitic lines were plated separately in a two layer agar matrix. Cell lines to be tested were suspended in an upper layer of 0.4% Noble agar (Difco#00142-01) in RPMI-1066 (Gibco#3201875) at a yield varying between 10^4 to 2×10^5 cells per 60 mm Petri dish. Plating efficiency was determined for each line in order to achieve an optimal number of colonies per dish. […] The bottom layer consisted of 0.8% Noble agar, 0.8% Tryptic Soy Broth (difco#0037001)in CMRL-1066/Fischer's. The bottom layers were used within 2 and 9 days of preparation. Plated dishes (bottom layer of agar, upper layer of cells and administered drug were incubated in humidified atmosphere at 37° C., 5% CO2 for 10-20 days depending upon the time necessary to observe adequate colonies (defined as a cell aggregate of more than 50 cells) both control and drug inhibited. Drugs were administered on a paper filter disk (Whatman No. 1) of 6.5 mm diameter placed on the upper layer at 1/3 distance from the edge of the dish. The anti-clonogenic activity of the compounds was measured as the zone of inhibition from the disk edge to the most proximal colonies. This zone of inhibition was checked on an inverted microscope (40×) and was measured with a micrometer mounted in the eyepiece. The ocular micrometer was calibrated with a stage micrometer set for a particular combination of ocular and objective lenses. […] We made a modification of the initial technique by not plating a solid tumor and a leukemia simultaneously in the same Petri dish. […] HUMAN TUMORS. […] LS180 (13) and BE1(14) were obtained from the Oncology Dept. of the Montreal General Hospital. […] Cell lines were routinely passaged twice a week by trypsinization and maintained in 25, or 75-sq. cm Falcon Plastic flasks at 37° C., 5% CO2 in humidified atmosphere. Both compounds were dissolved in DMSO (1 mg/100 ul) and brought to final volume (250 ul) with Millipore deionized sterile water. Further dilutions were made with […] volume of 25 ul of freshly prepared solution was placed on the filter disk and allowed to dry.

Another test relates to SKOV3. As to the kind of experiment: Microculture tetrazolium assay. Type of test: cell-based. As to conditions: read-out: IC50.
For test [2], the system named is HT29. As to the kind of experiment: Microculture tetrazolium assay. The format is cell-based. As to conditions: read-out: IC50.
Another test deals with MATB/ADR. In words: Soft agar colony formation disk diffusion assay. Type of test: cell-based, rat. An excerpt:
(§1) A more elaborate version of this fundamental assay, the soft agar colony formation disk diffusion assay was used. This assay defines the relative activity of one particular drug versus a tumoral cell line type. The effect of the test drug against tumoral cells could be measured by its inhibitory capacity against colony formation after the delivery of the compound, in different concentrations on an filter disk(4). A modified technique of this assay was used in order to investigate the antiproliferative activity of candidate compounds. Tumoral cells from solid tumors and ascitic lines were plated separately in a two layer agar matrix. Cell lines to be tested were suspended in an upper layer of 0.4% Noble agar (Difco#00142-01) in RPMI-1066 (Gibco#3201875) at a yield varying between 10^4 to 2×10^5 cells per 60 mm Petri dish. Plating efficiency was determined for each line in order to achieve an optimal number of colonies per dish. Plates were examined before drug administration to confirm a uniform dispersion of single cells. The bottom layer consisted of 0.8% Noble agar, 0.8% Tryptic Soy Broth (difco#0037001)in CMRL-1066/Fischer's. The bottom layers were used within 2 and 9 days of preparation. Plated dishes (bottom layer of agar, upper layer of cells and administered drug were incubated in humidified atmosphere at 37° C., 5% CO2 for 10-20 days depending upon the time necessary to observe adequate colonies (defined as a cell aggregate of more than 50 cells) both control and drug inhibited. Drugs were administered on a paper filter disk (Whatman No. 1) of 6.5 mm diameter placed on the upper layer at 1/3 distance from the edge of the dish. The anti-clonogenic activity of the compounds was measured as the zone of inhibition from the disk edge to the most proximal colonies. This zone of inhibition was checked on an inverted microscope (40×) and was measured with a micrometer mounted in the eyepiece. The ocular micrometer was calibrated with a stage micrometer set for a particular combination of ocular and objective lenses. […] We made a modification of the initial technique by not plating a solid tumor and a leukemia simultaneously in the same Petri dish. Anti-clonogenic tests performed on leukemia cell line have helped in the discovery of the majority of current clinically used cytostatic drugs. Our tests on solid tumor lines (animal or human) may help define active compounds with solid tumor specificity. […] Murine tumors were maintained IN VIVO in order to diminish the selection of subpopulations of cells normally present in the heterogenous IN VIVO tumor. The actual drug sensitivity assay was done IN VITRO. For these experiments cells from freshly excised tumors or from ascitic fluids were maintained in RPMI-1066. Both compounds were dissolved in DMSO (1 mg/100 ul) and brought to final volume (250 ul) with Millipore deionized sterile water. Further dilutions were made with […] volume of 25 ul of freshly prepared solution was placed on the filter disk and allowed to dry.
Background: In agar diffusion tests the substance spreads into inoculated agar from a disc or well.

Another test relates to MATB.WT. As to the kind of experiment: Soft agar colony formation disk diffusion assay. The format is cell-based, rat.
From the text: as §1

A further test concerns T47D. As to the kind of experiment: Microculture tetrazolium assay. The format is cell-based. As to conditions: read-out: IC50.
A further test relates to SKVLB. In words: Microculture tetrazolium assay. Type of test: cell-based. As to conditions: for VLB/OV3: IC50 ratio SKVLB/SKOV3; for IC50: SKVLB, read-out: IC50.

Like-named read-outs stand apart in the source and are kept apart here.

By IC50 is commonly meant the concentration needed to halve the response being measured.

As for “3-(2-acetoxy-1-propeneketal)aceto-6-acetoxy-1-hydroxy-1,2,3,4-tetrahydro-(2-oxygen)naphtacene-5,12-dione and 3-(2-acetoxy-1-propeneketal)-aceto-11-acetoxy-1-hydroxy-1,2,3,4-tetrahydro-(2-oxygen)naphtacene-5,12-dione [BCH-710]”, the zone of inhibition is on record as 30.0 ± 8.4 Zone Units in the test on HT29 [1] (10 μg/DISK); 69.0 ± 30.0 Zone Units in the test on HT29 [1] (100 μg/DISK); 288.0 ± 21.9 Zone Units in the test with MATB/ADR (10 μg/DISK); 350.0 ± 64.3 Zone Units in the test on MATB/ADR (100 μg/DISK); 44.0 Zone Units in the test on MATB.WT (10 μg/DISK); 366.0 ± 0.0 Zone Units with MATB.WT (100 μg/DISK). The IC50 was 3.98 µM in the test with SKOV3 (SKOV3), 1.79 µM with HT29 [2] (HT29), 3.57 µM in the test on T47D and 5.19 µM in the test on SKVLB. For the same compound, in the test on MATB/ADR, the “cross resistance with adriamycin, MATB/ADR vs MATB.WT” value is given as “greater cytotoxicity in the resistant breast tumor cell line”. Further, the VLB/OV3 in the test with SKVLB came to 1.30.
With “3-(2-hydroxy)aceto-6-hydroxy-1,2,3,4-tetrahydro-(2-oxygen)naphthacene-5,12-dione and 3-(2-hydroxy)aceto-11-hydroxy-1,2,3,4-tetrahydro-(2-oxygen)naphthacene-5,12-dione [BCH-694]”, the zone of inhibition in the test with HT29 [1] (10 μg/DISK) is listed as 30.5 ± 8.6 Zone Units; in the test with HT29 [1] (100 μg/DISK), 143.3 ± 30.1 Zone Units; in the test with MATB/ADR (10 μg/DISK), 27.4 ± 4.3 Zone Units; with MATB/ADR (100 μg/DISK) it was 213.5 ± 43.1 Zone Units; in the test on MATB.WT (10 μg/DISK), 76.2 ± 2.5 Zone Units; in the test on MATB.WT (100 μg/DISK) it was 207.0 ± 33.9 Zone Units. Also, the IC50 was determined as 8.22 µM with SKOV3 (SKOV3), 13.4 µM in the test on HT29 [2] (HT29), 11.3 µM in the test with T47D and 17.9 µM in the test with SKVLB. In the test with SKVLB, the VLB/OV3 is given as 2.18.
On to “3-Carbomethoxy-1,11-dihydroxy-1,2,3,4-tetrahydro-(2-oxygen)naphthacene-5,12-dione 3-Carbomethoxy-1,6-dihydroxy-1,2,3,4-tetrahydro-(2-oxygen)naphthacene-5,12-dione [BCH-711]”, for which the zone of inhibition in the test with HT29 [1] (10 μg/DISK) was determined as 27.0 ± 4.2 Zone Units; in the test on HT29 [1] (100 μg/DISK), 91.5 ± 43.1 Zone Units; with MATB/ADR (10 μg/DISK), 45.5 ± 21.9 Zone Units; in the test on MATB/ADR (100 μg/DISK), 107.0 ± 21.9 Zone Units; in the test on MATB.WT (10 μg/DISK) it was 27.0 ± 4.2 Zone Units; in the test on MATB.WT (100 μg/DISK), 137.0 ± 21.2 Zone Units. The IC50 in the test with SKOV3 (SKOV3) was 11.1 µM; with HT29 [2] (HT29), 5.68 µM; with T47D, 12.4 µM; with SKVLB, 13.5 µM. The “cross resistance with adriamycin, MATB/ADR vs MATB.WT” value in the test with MATB/ADR is reported as “greater cytotoxicity in the resistant breast tumor cell line”. Further, in the test with SKVLB, the VLB/OV3 turned out to be 1.22.
Turning to “3-carbomethoxy-6-hydroxy-1,2,3,4-tetrahydro-(2-sulfur)naphthacene-5,12-dione and 3-carbomethoxy-11-hydroxy-1,2,3,4-tetrahydro(2-sulfur)naphthacene-5,12-dione [BCH-693]”, the zone of inhibition in the test on HT29 [1] (10 μg/DISK) turned out to be 0 Zone Units; in the test with HT29 [1] (100 μg/DISK), 39.6 ± 4.3 Zone Units; in the test with MATB/ADR (10 μg/DISK), 0 Zone Units; in the test on MATB/ADR (100 μg/DISK), 67.1 ± 8.6 Zone Units; in the test on MATB.WT (10 μg/DISK) it was 0 Zone Units; in the test on MATB.WT (100 μg/DISK) it was 42.7 ± 8.8 Zone Units. Moreover, the concentration for half-maximal inhibition (IC50) in the test on SKOV3 (SKOV3) turned out to be 41.6 µM; in the test on HT29 [2] (HT29) it was 18.9 µM; in the test with T47D, 16.3 µM; in the test on SKVLB it was 44.2 µM. The VLB/OV3 in the test with SKVLB is 1.06.
For `COC(=O)[C@H]1CC2=C(C(=O)c3c(cc4ccccc4c3O)C2=O)[C@H](O[C@H]2C[C@H](NC(=O)C(F)(F)F)[C@H](O)[C@H](C)O2)O1` (mixture of isomers) [BCH-692, (1'S,1S,3R) and (1'S,1R,3S) Methyl[11-hydroxy-1-(2',3',6'-trideoxy-3'-trifluoroacetamido-4'-hydroxy-L-lyxohexopyranose)-5,12-dioxo-3,4,5,12-tetrahydro-anthraceno[2,3-c]pyran-3-yl]formate], the zone of inhibition in the test on HT29 [1] (10 μg/DISK) is reported as 105.0 ± 5.0 Zone Units; in the test with MATB/ADR (10 μg/DISK), 0 Zone Units; in the test on MATB/ADR (100 μg/DISK), 180.0 ± 50.5 Zone Units; in the test with MATB.WT (10 μg/DISK), 150.0 ± 18.5 Zone Units; with MATB.WT (100 μg/DISK), 400.5 ± 100.0 Zone Units. The half-inhibitory concentration (IC50) with SKOV3 (Homo sapiens, SK-OV-3, SKOV3) is 2.84 µM; in the test on HT29 [2] (Homo sapiens, HT-29, HT29), 2.18 µM; in the test on T47D (Homo sapiens) it was 71 µM; with SKVLB, 1.77 µM. For the same compound, the VLB/OV3 with SKVLB worked out at 0.62.
As for `CCOC(=O)[C@H]1CC2=C(C(=O)c3cc4ccccc4c(O)c3C2=O)[C@H](O[C@H]2C[C@H](NC(=O)C(F)(F)F)[C@H](O)[C@H](C)O2)O1` [BCH-684, (1'S,1S,3R)Ethyl[6-hydroxy-5,12-dioxo-1-(3'-trifluoroacetamido-1-daunosaminyl)-3,4,5,12-tetrahydroanthraceno(2,3-C)pyran-3-yl]formate], the zone of inhibition with HT29 [1] (10 μg/DISK) was found to be 137.2 ± 21.5 Zone Units; in the test on HT29 [1] (100 μg/DISK) it was 170.8 ± 86.2 Zone Units; with MATB/ADR (10 μg/DISK) it was 122.0 ± 17.0 Zone Units; in the test with MATB/ADR (100 μg/DISK) it was 320.2 ± 107.8 Zone Units; in the test with MATB.WT (10 μg/DISK), 131.3 ± 12.9 Zone Units; with MATB.WT (100 μg/DISK), 366.0 ± 172.5 Zone Units. For the same compound, the IC50 in the test with SKOV3 (Homo sapiens, SK-OV-3, SKOV3) came to 4.19 µM; with SKVLB it was 6.38 µM. In addition, in the test on MATB/ADR, the “cross resistance with adriamycin, MATB/ADR vs MATB.WT” value is on record as “no cross resistance with adriamycin”. For the same compound, the VLB/OV3 in the test with SKVLB is on record as 1.52.
With `C=CC1CC2=C(C(=O)c3cc4ccccc4c(O)c3C2=O)C(OC)O1` (stereo not shown) [BCH-712, 6-hydroxy-1-methoxy-1,2,3,4-tetrahydro-3-vinyl-(2-oxygen) naphthacene-5,12-dione], the zone of inhibition in the test on HT29 [1] (10 μg/DISK) is reported as 0 Zone Units; in the test on HT29 [1] (100 μg/DISK) it was 55.0 ± 8.4 Zone Units; in the test on MATB/ADR (10 μg/DISK) it was 0 Zone Units; in the test on MATB/ADR (100 μg/DISK), 64.0 ± 4.2 Zone Units; in the test on MATB.WT (10 μg/DISK), 21.0 ± 4.3 Zone Units; in the test with MATB.WT (100 μg/DISK), 76.0 ± 21.2 Zone Units. In addition, the “cross resistance with adriamycin, MATB/ADR vs MATB.WT” value in the test with MATB/ADR is “no cross resistance with adriamycin”.
